{"source": "patent US9775857B2", "about": "“Lignans isolated from Lasia spinosa (L.) Thwait” (Hong Kong Baptist University, priority 2015, dated 2017)", "key": {"KYSE-150": {"system": "KYSE-150", "assay": "Cytotoxicity assay (MTT), KYSE-150", "type": "cell-based", "details": "human esophageal carcinoma cells, 1.56-50 μg/mL tested; for Cytotoxicity against KYSE-150, IC50: 48 h; for IC50: Homo sapiens, KYSE-150, 48 h, read-out: Cytotoxicity against KYSE-150, IC50", "protocol": "(§1) Test compounds were dissolved in dimethyl sulfoxide (DMSO) to make stock solutions and further diluted in culture medium. Human esophageal carcinoma cell lines (KYSE-70, KYSE-150, KYSE-450 and KYSE-520) were cultured in RPMI 1640 or DMEM medium containing 10% fetal bovine serum and 1% antibiotics (Penicillin and strep). 3×10^3 cells/well were seeded in a 96-well plate and allowed to attach to the plate overnight. After the recovery, cells were treated with 1.56, 3.125, 6.25, 12.5, 25, 50 μg/mL of compounds in culture medium for 48 h. Then, 20 μL of MTT (5 mg/mL stock in PBS) per well was added into the medium (200 μL) and incubated for 4 h at 37° C. Finally, the culture medium was removed and 200 μL of DMSO were added. Absorbance of the solution was measured using microplate reader spectrophotometer (Bio-Rad Laboratories, Inc., Hercules, Calif.) at a wavelength of 570 nm."}, "KYSE-70": {"system": "KYSE-70", "assay": "Cytotoxicity assay (MTT), KYSE-70", "type": "cell-based", "details": "48 h, 1.56-50 μg/mL tested; for Cytotoxicity against KYSE-70, IC50: human esophageal carcinoma cells; for IC50: KYSE-70, human esophageal carcinoma cells, read-out: Cytotoxicity against KYSE-70, IC50", "protocol": "as §1"}, "KYSE-450": {"system": "KYSE-450", "assay": "Cytotoxicity assay (MTT), KYSE-450", "type": "cell-based", "details": "48 h, 1.56-50 μg/mL tested; for Cytotoxicity against KYSE-450, IC50: human esophageal carcinoma cells; for IC50: KYSE-450, human esophageal carcinoma cells, read-out: Cytotoxicity against KYSE-450, IC50", "protocol": "as §1"}, "KYSE-520": {"system": "KYSE-520", "assay": "Cytotoxicity assay (MTT), KYSE-520", "type": "cell-based", "details": "human esophageal carcinoma cells, 1.56-50 μg/mL tested; for IC50: Homo sapiens, KYSE-520, 48 h, read-out: Cytotoxicity against KYSE-520, IC50", "protocol": "as §1"}, "KYSE-150 cells": {"system": "KYSE-150 cells", "assay": "Tumor xenograft mouse model", "type": "in vivo, nude female mice", "details": "KYSE-150 xenograft", "protocol": "The tumor xenograft mice were treated with a vehicle or compound 9 at 15 or 30 mg/kg once a day […] for 12 days. Tumor size was measured every two days and body weight was measured every day. On day 13, the mice were sacrificed, and tumor weight was measured (n=5, *p<0.05, **p<0.01, ***p<0.001, ****p<0.0001).\nSix to eight weeks old nude female mice weighing about 16-20 g were purchased from the Laboratory Animal Services Center, the Chinese University of Hong Kong, and 2×10^6 KYSE-150 cells in […] saline were injected subcutaneously into the flanks of the mice. When the tumor volume reached about 100 mm^3, the mice were randomly divided into three groups (n=5). The control group was administered with saline, while compound 9 treatment groups were given different doses of 9 (15 or 30 mg/kg, respectively) by intraperitoneal injection. Tumor volume were measured by vernier caliper every two days for 12 days, and calculated according to the formula: Volume=(width)^2×length/2. At the end of observation, mice were killed to remove the tumors. Then the samples were fixed in 4% paraformaldehyde and embedded in paraffin. Five-micro-meter sections were stained with hematoxylin/eosin according to a standard procedure. Animal protocol was approved by the committee for Care of Laboratory Animals in the School of Chinese Medicine at the Hong Kong Baptist University."}, "[1]": {"details": "15 or 30 mg/kg once a day for 12 days"}}, "note": "“Also recorded” adds a separate entry of the source.", "data": [{"smiles": "COc1cc(C[C@@H](CO)[C@H](CO)Cc2cc(OC)c(O)c(OC)c2)cc(OC)c1O", "note": "[Compound 2, 5,5′-Dimethoxysecoiso-lariciresinol]", "values": [{"measurement": "Cytotoxicity against KYSE-150, IC50", "setting": "KYSE-150", "result": 49.63, "unit": "μg/mL"}, {"measurement": "Cytotoxicity against KYSE-150, IC50", "setting": "KYSE-150; listed as compound 2", "result": "~50", "unit": "μg/mL"}, {"measurement": "Cytotoxicity against KYSE-70, IC50", "setting": "KYSE-70", "result": 47.22, "unit": "μg/mL"}, {"measurement": "Cytotoxicity against KYSE-70, IC50", "setting": "KYSE-70; listed as compound 2", "result": "~50", "unit": "μg/mL"}, {"measurement": "Cytotoxicity against KYSE-450, IC50", "setting": "KYSE-450", "result": 39.21, "unit": "μg/mL"}, {"measurement": "Cytotoxicity against KYSE-450, IC50", "setting": "KYSE-450; listed as compound 2", "result": "~50", "unit": "μg/mL"}]}, {"smiles": "COc1cc(CC(C)C(O)(CO)Cc2cc(OC)c(O)c(OC)c2)ccc1O", "note": "(stereo not shown) [Compound 3, 2-(4-Hydroxy-3,5-dimethoxybenzyl)-3-(4-hydroxy-3-methoxybenzyl)-1,2-butanediol]", "values": [{"measurement": "IC50", "setting": "KYSE-150", "result": 34.5, "unit": "µg/mL"}, {"measurement": "IC50", "setting": "KYSE-70", "result": "> 50", "unit": "µg/mL"}, {"measurement": "IC50", "setting": "KYSE-520", "result": "> 50", "unit": "µg/mL"}, {"measurement": "IC50", "setting": "KYSE-450", "result": "> 50", "unit": "µg/mL"}]}, {"smiles": "COc1cc([C@H]2OC[C@H]3[C@@H]2CO[C@@H]3c2cc(OC)c(O)c(OC)c2)cc(OC)c1O", "note": "[Compound 9, Syringaresinol]", "values": [{"measurement": "IC50", "setting": "KYSE-150", "result": "> 50", "unit": "µg/mL"}, {"measurement": "IC50", "setting": "KYSE-70", "result": "> 50", "unit": "µg/mL"}, {"measurement": "IC50", "setting": "KYSE-520", "result": "> 50", "unit": "µg/mL"}, {"measurement": "IC50", "setting": "KYSE-450", "result": "> 50", "unit": "µg/mL"}, {"measurement": "body weight", "setting": "KYSE-150 cells; [1]", "result": "suppresses the body weight; also recorded: less body weight loss"}, {"measurement": "toxic death", "setting": "KYSE-150 cells; [1]", "result": "no toxic death"}, {"measurement": "weight of tumor", "setting": "KYSE-150 cells; 15 or 30 mg/kg once a day for 12 days, day 13", "result": "suppresses the weight of tumor"}, {"measurement": "tumor growth / size of tumor", "setting": "KYSE-150 cells; 15 or 30 mg/kg once a day for 12 days, vs control", "result": "suppresses the size of tumor; also recorded: significant tumor growth delay"}, {"measurement": "H&E staining of the tumor tissue (histological manifestation)", "setting": "KYSE-150 cells; 15 or 30 mg/kg, vs control (orderly and tightly)", "result": "obviously loose and messy"}]}, {"smiles": "COc1cc([C@H]2Oc3c(OC)cc(CCCO)cc3[C@@H]2CO)ccc1O", "note": "[Compound 8, Dihydrodehydrodiconifery Alcohol]", "values": [{"measurement": "IC50", "setting": "KYSE-150", "result": "~30", "unit": "µg/mL"}, {"measurement": "Cytotoxicity against KYSE-150, IC50", "setting": "KYSE-150", "result": 31.86, "unit": "μg/mL"}, {"measurement": "IC50", "setting": "KYSE-70", "result": "> 50", "unit": "µg/mL"}, {"measurement": "IC50", "setting": "KYSE-520", "result": "~30", "unit": "µg/mL"}, {"measurement": "Cytotoxicity against KYSE-520, IC50", "setting": "KYSE-520; 48 h", "result": 37.34, "unit": "μg/mL"}, {"measurement": "IC50", "setting": "KYSE-450", "result": "> 50", "unit": "µg/mL"}]}]}
